Source: the supplement of paper PMC11451515

Tested on: NOMO1
Experiment: cell viability relative to DMSO control; higher = less cytotoxic
Details: 48 h
In short: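 Library compounds in DMSO were pin-dosed into 1536-well plates (5 μl) holding NOMO1 or SEM (500 cells/well) or P12-Ichikawa (1000 cells/well) leukemia cells, across an 11-point threefold series of 47 μM to 0.79 nM. Each cell line had been adapted for at least four passages in each medium. CellTiter-Glo One luminescence was read after 48 h at 37°C. Viability is the per-plate percentage relative to DMSO wells, with cell-free wells as background.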

Cc1c(N)nc([C@H](CC(N)=O)NC[C@@H](N)C(N)=O)nc1C(=O)N[C@H](C(=O)N[C@@H](C)[C@H](O)[C@@H](C)C(=O)N[C@@H](C(=O)NCCc1nc(-c2nc(C(=O)NCCC[S+](C)C)cs2)cs1)[C@@H](C)O)C(O[C@H]1O[C@H](CO)[C@H](O)[C@@H](O)[C@H]1O[C@H]1O[C@H](CO)[C@@H](O)[C@H](OC(N)=O)[C@@H]1O)c1c[nH]cn1 (stereo partly drawn)
cell viability [%]
Details | HPLM + 10% dialyzed FBS | RPMI 5 mM glucose + 10% FBS | RPMI 5 mM glucose + 10% dialyzed FBS
0.000781 µM | 117 | 101 | 119
0.00234 µM | 112 | 100 | 117
0.00702 µM | 128 | 95 | 114
0.0211 µM | 125 | 98.6 | 132
0.0632 µM | 121 | 110 | 113
0.19 µM | 128 | 115 | 124
0.569 µM | 108 | 114 | 138
1.71 µM | 74 | 71.9 | 127
5.12 µM | 40.4 | 41.1 | 66
15.4 µM | 57.9 | 72.2 | 85
46.1 µM | 85.9 | 79.6 | 86.7
